In data set [1] the test system is cytokines TNF-α, IL-1β, IL-6, IL-12, IL-2, IFN-γ, IL4, IL-10. The data set is described as follows: Cytokine expression levels in spleen cells by RT-PCR. Particulars: spleen cells of treated DBA/1 mouse, 10 mg/kg i.p. every other day. Type of data set: in vivo. How it is done:
The spleen cells were removed from DBA/1 mouse of the prodigiosin-treated group and the control group, not treated with prodigiosin, in Example 3 and subjected to RNA separation. Then, the expression levels of cytokine were measured using RT-PCR (Reverse transcriptase polymerase chain reaction). The expression levels of inflammatory cytokines such as TNF-α, IL-1β, IL-6, IL-12; cytokines derived from Th1 cells such as IL-2, IFN-γ; cytokines derived from Th2 cells such as IL4, IL-10 were measured.

Data set [2] deals with transplantation rejection. As to conditions: in vivo; cited from earlier work.
In another data set the test system is T-cell. As to conditions: cited from earlier work.
The next data set relates to animal. Particulars: 10 to 30 mg/kg for 16 weeks; cited from earlier work.
Another data set relates to NOD mouse. Particulars: cited from earlier work.
The test system of a further data set is B-cell. Particulars: cited from earlier work.
Data set [3] has as its system DBA/1 mouse with collagen-induced rheumatic arthritis. The data set is described as follows: Crisis level (clinical index) of collagen-induced rheumatic arthritis. Type of data set: in vivo. How it is done: 6 week-old male DBA/1 mouse supplied from Charles River Japan (Japan) was adapted until 8 to 12 week-old and then, used in the experiment. On the first day of the experiment, the mouse was administered subcutaneously with 100 μl of collagen/complete freund's adjuvant at its tail. The collagen/complete freund's adjuvant was prepared by mixing a solution of collagen (bovine type II) dissolved in 0.05 M acetic acid at a concentration of 2 mg/ml with complete freund's adjuvant at the same concentration. At 21st day of the experiment, 100 μg of collagen was intraperitoneally administered and at 28th day of the experiment, 40 μg of lipopolysaccharide was intraperitoneally administered to promote arthritis crisis. The crisis level of rheumatic arthritis was examined with the naked eye and expressed as a clinical index. That is, 0=none, 0.5=flushed and swollen toe, 1=mild crisis, 1.5=moderate crisis, 2 or more=severe crisis and joint stiffness. Four legs of the DBA/1 mouse were examined for their levels of arthritis crisis.
In order to confirm the therapeutic effect of prodigiosin on rheumatic arthritis, three types of experiments were performed according to the following strategies: (1) 10 mg/kg of prodigiosin was intraperitoneally administered every other day from the 29th day of the experiment, when rheumatic arthritis lesion was developed, to 65th day, the last day of the experiment; (2) 10 mg/kg of prodigiosin was intraperitoneally administered every other day from the 29th day of the experiment, when rheumatic arthritis lesion was developed, to 36th day of the experiment; and (3) 10 mg/kg of prodigiosin was intraperitoneally administered every other day from the 36th day of the experiment, when rheumatic arthritis was in progress, to 65th day, the last day of the experiment.
(§1) In this example, the DBA/1 mouse with collagen-induced rheumatic arthritis, prepared in Example 1, were administered intraperitoneally with 10 mg/kg of prodigiosin every other day from the 29th day of the experiment to 65th day of the experiment. The DBA/11 mouse treated with prodigiosin according to the above method and the DBA/1 mouse non-treated with prodigiosin were examined for their crisis level of rheumatic arthritis according to time.
as §1, with “order to investigate the change after suspension of administration of prodigiosin and the influence of prodigiosin on early rheumatic arthritis,” for “this example,”, “36th” for “65th”, “DBA/1” for “DBA/11”, “time. […] Accordingly, it is noted that prodigiosin has effects preventing and treating rheumatic arthritis.” for “time.”
In order to investigate the influence of prodigiosin on rheumatic arthritis which had developed and progressed, the DBA/1 mouse with collagen-induced rheumatic arthritis, prepared in Example 1, were administered intraperitoneally with 10 mg/kg of prodigiosin every other day from the 36th day to 65th day after starting the experiment. The DBA/1 mouse treated with prodigiosin according to the above method and the DBA/1 mouse non-treated with prodigiosin were examined for their crisis level of rheumatic arthritis according to time.

For data set [4] the test system is unchanged. The data set is described as follows: Laboratory test: hematoxylin and eosin staining of interphalangeal and knee joints. Type of data set: in vivo. As to conditions: H&E staining. The source says:
The ininter phalangeal joints and knee joints from DBA/1 mouse of the prodigiosin-treated group and the control group, not treated with prodigiosin, in Example 3 were subjected to a laboratory test. The ininter phalangeal joints and knee joints were removed on the last day of the administration and stained with hematoxylin and eosin.

With `CCCCCC1=C/C(=C/c2[nH]c(-c3ccc[nH]3)cc2OC)N=C1C` [prodigiosin], in data set [1], the “expression levels of cytokines (TNF-α, IL-1β, IL-6, IL-12, IL-2, IFN-γ, IL4, IL-10)” value is given as “reduced the expression levels of all kinds of cytokines”. For the same compound, the “effect on transplantation rejection” value in data set [2] is given as “therapeutic effects”. Also, the “proliferation and activity of T-cell” value with T-cell was “strongly inhibit”. Moreover, the “toxicity at a concentration where immunosuppression occurs” value in the data set on T-cell (concentration where immunosuppression occurs) is given as “not showing toxicity”. For the same compound, in the data set on animal, the toxicity in animal result was “does not show toxicity”. Also, the “diabetes crisis of the NOD mouse” value in the data set on NOD mouse (10 mg/kg intraperitoneally every other day) is “completely suppressed”. For the same compound, the “insulitis (lymphocyte infiltration into pancreatic islet)” value in the data set on NOD mouse (NOD mouse) is listed as “suppressed insulitis”. For the same compound, the “antibody production and proliferation of B-cell” value with B-cell is listed as “does not inhibit”. Further, the “crisis level of rheumatic arthritis after suspension of administration” value in data set [3] (10 mg/kg i.p. every other day from 29th to 36th day, after suspension of administration) was “about 1”. The “crisis level of rheumatic arthritis by the 38th day” value in data set [3] (10 mg/kg i.p. every other day from 29th to 36th day, by the 38th day) is listed as not above 0.5. Moreover, the “crisis level of rheumatic arthritis” value in data set [3] (10 mg/kg i.p. every other day from 29th to 65th day, clinical index 0 to 8 (four legs)) was not above 0.5. The “crisis level of rheumatic arthritis at 36 day” value in data set [3] (10 mg/kg i.p. every other day from 36th to 65th day, at 36 day (start of administration)) is listed as “about 2”. Also, the “change of crisis level after 36 day” value in data set [3] (10 mg/kg i.p. every other day from 36th to 65th day, progressive arthritis) is “no more increase”. For the same compound, in data set [4] (groups of Example 3 (10 mg/kg i.p., 29th to 36th day)), the “histology of interphalangeal joint and knee joint” value is given as “Normal tissues”. Also, in data set [4] (groups of Example 3), the “joint destruction in the knee joint” value is on record as “not observed” and the “lymphocyte infiltration into the interphalangeal joint” value is listed as “not observed”.

The record behind these values is patent US20040127547A1, “Prodigiosin composition for the treatment of rheumatic arthritis” (priority 2001, published 2004).
